Results taken from ChEMBL document CHEMBL4190267, “Discovery of potent molecular chimera (CM358) to treat human metastatic melanoma” (Eur J Med Chem, 2017).
Activity calls are given as the source filed them. The rule behind the calls is not given here.

Assays:
PC-3 [1] = test: Growth inhibition of human PC3 cells up to 25 uM measured after 24 hrs by XTT assay; type: functional, cell-based
MDA-MB-231 [2] = test: Growth inhibition of human MDA-MB-231 cells up to 25 uM measured after 24 hrs by XTT assay; type: functional, cell-based
WM 266-4 [3] = test: Growth inhibition of human WM266.4 cells up to 25 uM measured after 24 hrs by XTT assay; type: functional, cell-based
A 172 [4] = test: Growth inhibition of human A172 cells up to 25 uM measured after 24 hrs by XTT assay; type: functional, cell-based
NCI-H1299 [5] = test: Growth inhibition of human NCI-H1299 cells up to 25 uM measured after 24 hrs by XTT assay; type: functional, cell-based
WM 266-4 [6] = test: Growth inhibition of human WM266.4 cells up to 25 uM measured up to 96 hrs by XTT assay; type: functional, cell-based
PC-3 [7] = test: Growth inhibition of human PC3 cells preincubated for 6 hrs followed compound washout measured after 24 hrs by XTT assay; type: functional
PC-3 [8] = test: Growth inhibition of human PC3 cells preincubated for 6 hrs cotreated with chlorambucil followed compound washout measured after 24 hrs by XTT assay; type: functional
MDA-MB-231 [9] = test: Growth inhibition of human MDA-MB-231 cells preincubated for 6 hrs followed compound washout measured after 24 hrs by XTT assay; type: functional
MDA-MB-231 [10] = test: Growth inhibition of human MDA-MB-231 cells preincubated for 6 hrs cotreated with chlorambucil followed compound washout measured after 24 hrs by XTT assay; type: functional
WM 266-4 [11] = test: Growth inhibition of human WM266.4 cells preincubated for 6 hrs followed compound washout measured after 24 hrs by XTT assay; type: functional
WM 266-4 [12] = test: Growth inhibition of human WM266.4 cells preincubated for 6 hrs cotreated with chlorambucil followed compound washout measured after 24 hrs by XTT assay; type: functional
A 172 [13] = test: Growth inhibition of human A172 cells preincubated for 6 hrs followed compound washout measured after 24 hrs by XTT assay; type: functional
A 172 [14] = test: Growth inhibition of human A172 cells preincubated for 6 hrs cotreated with chlorambucil followed compound washout measured after 24 hrs by XTT assay; type: functional
NCI-H1299 [15] = test: Growth inhibition of human NCI-H1299 cells preincubated for 6 hrs followed compound washout measured after 24 hrs by XTT assay; type: functional
NCI-H1299 [16] = test: Growth inhibition of human NCI-H1299 cells preincubated for 6 hrs cotreated with chlorambucil followed compound washout measured after 24 hrs by XTT assay; type: functional
WM 266-4 [17] = test: Cell cycle arrest in human WM266.4 cells assessed as accumulation at G1 phase at 10 uM cotreated with chlorambucil after 2 hrs by propidium iodide staining based flow cytometry (reference value: 59%); type: functional
WM 266-4 [18] = test: Cell cycle arrest in human WM266.4 cells assessed as accumulation at S phase at 10 uM cotreated with chlorambucil after 2 hrs by propidium iodide staining based flow cytometry (reference value: 27%); type: functional
WM 266-4 [19] = test: Cell cycle arrest in human WM266.4 cells assessed as accumulation at G2 phase at 10 uM cotreated with chlorambucil after 2 hrs by propidium iodide staining based flow cytometry (reference value: 11%); type: functional
WM 266-4 [20] = test: Cell cycle arrest in human WM266.4 cells assessed as accumulation at G1 phase at 10 uM cotreated with chlorambucil after 8 hrs by propidium iodide staining based flow cytometry (reference value: 59%); type: functional
WM 266-4 [21] = test: Cell cycle arrest in human WM266.4 cells assessed as accumulation at S phase at 10 uM cotreated with chlorambucil after 8 hrs by propidium iodide staining based flow cytometry (reference value: 27%); type: functional
WM 266-4 [22] = test: Cell cycle arrest in human WM266.4 cells assessed as accumulation at G2 phase at 10 uM cotreated with chlorambucil after 8 hrs by propidium iodide staining based flow cytometry (reference value: 11%); type: functional
WM 266-4 [23] = test: Cell cycle arrest in human WM266.4 cells assessed as accumulation at G1 phase at 10 uM cotreated with chlorambucil after 24 hrs by propidium iodide staining based flow cytometry (reference value: 59%); type: functional
WM 266-4 [24] = test: Cell cycle arrest in human WM266.4 cells assessed as accumulation at S phase at 10 uM cotreated with chlorambucil after 24 hrs by propidium iodide staining based flow cytometry (reference value: 27%); type: functional
WM 266-4 [25] = test: Cell cycle arrest in human WM266.4 cells assessed as accumulation at G2 phase at 10 uM cotreated with chlorambucil after 24 hrs by propidium iodide staining based flow cytometry (reference value: 11%); type: functional
[26] = biological target: DNA topoisomerase 2-alpha (Homo sapiens) (UniProt P11388); test: Inhibition of human topoisomerase-2alpha assessed as reduction in enzyme-mediated decatenation at 100 uM using kinetoplast DNA as substrate after 25 mins by ethidium bromide staining based agarose gel electrophoresis method
[27] = biological target: DNA topoisomerase 2-alpha (Homo sapiens) (UniProt P11388); test: Inhibition of human topoisomerase-2alpha assessed as reduction in enzyme-mediated decatenation at 25 uM using kinetoplast DNA as substrate after 25 mins by ethidium bromide staining based agarose gel electrophoresis method
WM 266-4 [28] = test: (§1) Antitumor activity against human WM266.4 cells xenografted in athymic Foxn1 nu mouse assessed as tumor growth inhibition at 10 mg/kg, ip cotreated with chlorambucil administered once daily for 7 days followed by resting period of 2 days repeated for 4 weeks starting from 5 days post tumor inoculation; type: functional, organism-based
WM 266-4 [29] = test: as §1, with “for 3” for “for 7”, “of 4” for “of 2”; type: functional, organism-based
Mus musculus [30] = test: Toxicity in athymic Foxn1 nu mouse xenografted with human WM266.4 cells assessed as body weight loss at 10 mg/kg, ip cotreated with chlorambucil administered once daily for 7 days followed by resting period of 2 days repeated for 4 weeks starting from 5 days post tumor inoculation; type: organism-based; details: in vivo
Mus musculus [31] = test: Toxicity in athymic Foxn1 nu mouse xenografted with human WM266.4 cells assessed as body weight loss at 10 mg/kg, ip cotreated with chlorambucil administered once daily for 3 days followed by resting period of 4 days repeated for 4 weeks starting from 5 days post tumor inoculation; type: organism-based; details: in vivo
PC-3 [32] = test: Growth inhibition of human PC3 cells preincubated for 6 hrs cotreated with amonafide followed compound washout measured after 24 hrs by XTT assay; type: functional
MDA-MB-231 [33] = test: Growth inhibition of human MDA-MB-231 cells preincubated for 6 hrs cotreated with amonafide followed compound washout measured after 24 hrs by XTT assay; type: functional
WM 266-4 [34] = test: Growth inhibition of human WM266.4 cells preincubated for 6 hrs cotreated with amonafide followed compound washout measured after 24 hrs by XTT assay; type: functional
A 172 [35] = test: Growth inhibition of human A172 cells preincubated for 6 hrs cotreated with amonafide followed compound washout measured after 24 hrs by XTT assay; type: functional
NCI-H1299 [36] = test: Growth inhibition of human NCI-H1299 cells preincubated for 6 hrs cotreated with amonafide followed compound washout measured after 24 hrs by XTT assay; type: functional
WM 266-4 [37] = test: Cell cycle arrest in human WM266.4 cells assessed as accumulation at G1 phase at 10 uM cotreated with amonafide after 2 hrs by propidium iodide staining based flow cytometry (reference value: 59%); type: functional
WM 266-4 [38] = test: Cell cycle arrest in human WM266.4 cells assessed as accumulation at S phase at 10 uM cotreated with amonafide after 2 hrs by propidium iodide staining based flow cytometry (reference value: 27%); type: functional
WM 266-4 [39] = test: Cell cycle arrest in human WM266.4 cells assessed as accumulation at G2 phase at 10 uM cotreated with amonafide after 2 hrs by propidium iodide staining based flow cytometry (reference value: 11%); type: functional
WM 266-4 [40] = test: Cell cycle arrest in human WM266.4 cells assessed as accumulation at G1 phase at 10 uM cotreated with amonafide after 8 hrs by propidium iodide staining based flow cytometry (reference value: 59%); type: functional
WM 266-4 [41] = test: Cell cycle arrest in human WM266.4 cells assessed as accumulation at S phase at 10 uM cotreated with amonafide after 8 hrs by propidium iodide staining based flow cytometry (reference value: 27%); type: functional
WM 266-4 [42] = test: Cell cycle arrest in human WM266.4 cells assessed as accumulation at G2 phase at 10 uM cotreated with amonafide after 8 hrs by propidium iodide staining based flow cytometry (reference value: 11%); type: functional
WM 266-4 [43] = test: Cell cycle arrest in human WM266.4 cells assessed as accumulation at G1 phase at 10 uM cotreated with amonafide after 24 hrs by propidium iodide staining based flow cytometry (reference value: 59%); type: functional
WM 266-4 [44] = test: Cell cycle arrest in human WM266.4 cells assessed as accumulation at S phase at 10 uM cotreated with amonafide after 24 hrs by propidium iodide staining based flow cytometry (reference value: 27%); type: functional
WM 266-4 [45] = test: Cell cycle arrest in human WM266.4 cells assessed as accumulation at G2 phase at 10 uM cotreated with amonafide after 24 hrs by propidium iodide staining based flow cytometry (reference value: 11%); type: functional
WM 266-4 [46] = test: Antitumor activity against human WM266.4 cells xenografted in athymic Foxn1 nu mouse assessed as tumor growth inhibition at 10 mg/kg, ip cotreated with amonafide administered once daily for 3 days followed by resting period of 4 days repeated for 4 weeks starting from 5 days post tumor inoculation; type: functional, organism-based
WM 266-4 [47] = test: Antitumor activity against human WM266.4 cells xenografted in athymic Foxn1 nu mouse assessed as tumor growth inhibition at 10 mg/kg, ip cotreated with amonafide administered once daily for 7 days followed by resting period of 2 days repeated for 4 weeks starting from 5 days post tumor inoculation; type: functional, organism-based
Mus musculus [48] = test: Toxicity in athymic Foxn1 nu mouse xenografted with human WM266.4 cells assessed as body weight loss at 10 mg/kg, ip cotreated with amonafide administered once daily for 7 days followed by resting period of 2 days repeated for 4 weeks starting from 5 days post tumor inoculation; type: organism-based; details: in vivo
Mus musculus [49] = test: Toxicity in athymic Foxn1 nu mouse xenografted with human WM266.4 cells assessed as body weight loss at 10 mg/kg, ip cotreated with amonafide administered once daily for 3 days followed by resting period of 4 days repeated for 4 weeks starting from 5 days post tumor inoculation; type: organism-based; details: in vivo

Sequence of DNA topoisomerase 2-alpha (Homo sapiens) (P11388 whole entry): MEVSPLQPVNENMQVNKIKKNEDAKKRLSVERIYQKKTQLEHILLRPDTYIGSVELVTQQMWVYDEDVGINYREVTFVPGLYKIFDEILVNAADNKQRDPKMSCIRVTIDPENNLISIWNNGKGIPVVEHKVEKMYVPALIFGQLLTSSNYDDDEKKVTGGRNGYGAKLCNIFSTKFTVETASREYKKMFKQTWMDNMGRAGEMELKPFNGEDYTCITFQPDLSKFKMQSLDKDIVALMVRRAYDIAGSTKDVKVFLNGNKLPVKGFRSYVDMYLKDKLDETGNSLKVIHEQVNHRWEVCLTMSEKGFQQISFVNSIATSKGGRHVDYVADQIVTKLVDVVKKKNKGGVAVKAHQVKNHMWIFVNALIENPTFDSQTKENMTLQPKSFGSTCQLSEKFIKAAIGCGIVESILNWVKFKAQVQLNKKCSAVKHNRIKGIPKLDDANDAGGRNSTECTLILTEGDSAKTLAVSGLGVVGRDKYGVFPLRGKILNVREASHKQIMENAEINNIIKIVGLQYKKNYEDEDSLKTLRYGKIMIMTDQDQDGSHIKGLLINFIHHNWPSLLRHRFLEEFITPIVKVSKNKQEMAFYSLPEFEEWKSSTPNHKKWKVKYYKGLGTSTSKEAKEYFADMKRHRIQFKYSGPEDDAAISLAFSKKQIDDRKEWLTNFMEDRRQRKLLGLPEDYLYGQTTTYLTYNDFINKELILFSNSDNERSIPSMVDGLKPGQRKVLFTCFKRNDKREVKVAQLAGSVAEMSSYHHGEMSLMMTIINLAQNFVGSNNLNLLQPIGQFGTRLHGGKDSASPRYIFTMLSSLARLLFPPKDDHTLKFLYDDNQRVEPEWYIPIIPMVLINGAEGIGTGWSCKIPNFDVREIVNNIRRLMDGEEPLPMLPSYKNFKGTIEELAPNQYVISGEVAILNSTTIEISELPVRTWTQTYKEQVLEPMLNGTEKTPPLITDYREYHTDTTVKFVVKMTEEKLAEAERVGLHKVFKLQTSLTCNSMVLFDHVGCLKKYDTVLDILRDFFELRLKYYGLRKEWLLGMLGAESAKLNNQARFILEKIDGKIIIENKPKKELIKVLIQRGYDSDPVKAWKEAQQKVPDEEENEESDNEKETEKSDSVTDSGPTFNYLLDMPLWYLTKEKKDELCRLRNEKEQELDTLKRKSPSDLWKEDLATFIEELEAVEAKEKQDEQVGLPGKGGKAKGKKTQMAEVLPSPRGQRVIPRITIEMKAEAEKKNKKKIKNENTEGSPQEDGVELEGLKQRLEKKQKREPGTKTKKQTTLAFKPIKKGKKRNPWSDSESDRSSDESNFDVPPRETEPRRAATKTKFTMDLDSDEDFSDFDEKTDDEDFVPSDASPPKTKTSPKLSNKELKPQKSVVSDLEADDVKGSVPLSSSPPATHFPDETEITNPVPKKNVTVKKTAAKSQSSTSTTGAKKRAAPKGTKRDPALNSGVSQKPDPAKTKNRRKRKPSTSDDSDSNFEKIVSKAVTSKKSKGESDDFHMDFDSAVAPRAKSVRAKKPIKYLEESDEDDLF

CC[C@@]1(OC(=O)N[C@H]2CCc3cc(OC)c(OC)c(OC)c3-c3ccc(OC)c(=O)cc32)C(=O)OCc2c1cc1n(c2=O)Cc2cc3ccccc3nc2-1
growth inhibition (GI) (PC-3 [1]): inactive | growth inhibition (GI) (MDA-MB-231 [2]): inactive | growth inhibition (GI) (WM 266-4 [3]): inactive | growth inhibition (GI) (A 172 [4]): inactive | growth inhibition (GI) (NCI-H1299 [5]): inactive | growth inhibition (GI) (WM 266-4 [6]): inactive

CN(C)CCN1C(=O)c2cccc3cc(N)cc(c23)C1=O [AMONAFIDE]
GI50 (PC-3 [7]): > 25 µM | GI50 (PC-3 [8]): > 25 µM | GI50 (MDA-MB-231 [9]): > 25 µM | GI50 (MDA-MB-231 [10]): > 25 µM | GI50 (WM 266-4 [11]): > 25 µM | GI50 (WM 266-4 [12]): > 25 µM | GI50 (A 172 [13]): > 25 µM | GI50 (A 172 [14]): > 25 µM | GI50 (NCI-H1299 [15]): > 25 µM | GI50 (NCI-H1299 [16]): > 25 µM | Activity (WM 266-4 [17]): 63.5% | Activity (WM 266-4 [18]): 26% | Activity (WM 266-4 [19]): 9.8% | Activity (WM 266-4 [20]): 29% | Activity (WM 266-4 [21]): 44.7% | Activity (WM 266-4 [22]): 23% | Activity (WM 266-4 [23]): 35% | Activity (WM 266-4 [24]): 39% | Activity (WM 266-4 [25]): 26% | inhibition [26]: Active | inhibition [27]: inactive | TGI (WM 266-4 [28]): inactive | TGI (WM 266-4 [29]): inactive | Activity (Mus musculus [30]): Toxic | Activity (Mus musculus [31]): Toxic

O=C(O)CCCc1ccc(N(CCCl)CCCl)cc1 [CHLORAMBUCIL]
GI50 (PC-3 [7]): > 25 µM | GI50 (PC-3 [32]): > 25 µM | GI50 (MDA-MB-231 [9]): > 25 µM | GI50 (MDA-MB-231 [33]): > 25 µM | GI50 (WM 266-4 [11]): > 25 µM | GI50 (WM 266-4 [34]): > 25 µM | GI50 (A 172 [13]): > 25 µM | GI50 (A 172 [35]): > 25 µM | GI50 (NCI-H1299 [15]): > 25 µM | GI50 (NCI-H1299 [36]): > 25 µM | Activity (WM 266-4 [37]): 63.5% | Activity (WM 266-4 [38]): 26% | Activity (WM 266-4 [39]): 9.8% | Activity (WM 266-4 [40]): 29% | Activity (WM 266-4 [41]): 44.7% | Activity (WM 266-4 [42]): 23% | Activity (WM 266-4 [43]): 35% | Activity (WM 266-4 [44]): 39% | Activity (WM 266-4 [45]): 26% | TGI (WM 266-4 [46]): inactive | TGI (WM 266-4 [47]): inactive | Activity (Mus musculus [48]): Toxic | Activity (Mus musculus [49]): Toxic

Nc1ccn([C@@H]2O[C@H](COC(=O)CCCc3ccc(N(CCCl)CCCl)cc3)[C@@H](O)[C@@H]2O)c(=O)n1
growth inhibition (GI) (PC-3 [7]): inactive | growth inhibition (GI) (MDA-MB-231 [9]): inactive | growth inhibition (GI) (WM 266-4 [11]): inactive | growth inhibition (GI) (A 172 [13]): inactive | growth inhibition (GI) (NCI-H1299 [15]): inactive
